{
  "source": "patent EP0130554A1",
  "about": "“Novel, physiologically active substance, process for production thereof and pharmaceutical composition containing the same” (KYOWA HAKKO KOGYO CO., LTD., priority 1983, dated 1985)",
  "key": {"[1]": {"assay": "Solubility in various solvents", "assay_type": "physicochemical"}, "[2]": {"system": "adrenergic receptor", "assay": "Agonistic/antagonistic activity on adrenergic receptor"}, "[3]": {"system": "Atria", "assay": "Inhibition of isoproterenol-induced positive chronotropic effect in spontaneously beating isolated atria (organ bath)", "assay_type": "cell-based, guinea pigs", "conditions": "Cavia porcellus, 0.5 h; MY336-a 30 µg/ml, added 30 minutes before isoproterenol hydrochloride 10^-9 g/ml; atrial rate, isolated guinea pig atria; read-out: blocked the positive chronotropic effect induced by isoproterenol hydrochloride", "description": "Method: • Atria were rapidly isolated from guinea pigs (body weight: 500 - 700G) and mounted in an organ bath. The bath was filled with 30 ml oxygenated (95% 02, 5% C02) Krebs-Henseleit's solution at 31il°C. Atria were allowed to beat spontaneously and the contractions were isometrically recorded using force- displacement transducers. Resting force was adjusted to 0.5g. Then, atrial rate was measured. Then, a solution of isoproterenol hydrochloride in a very small amount of water was added thereto to make the isoproterenol hydrochloride concentration to be 10-^9 g/ml, and atrial rate was measured.\nThe solution was discarded and the bath was filled with krebs-Henseleit's solution, and allowed to stand until the atrial rate was brought back.\nThen, a solution of MY336-a in a very small amount of 50% ethanol was added thereto to make the MY336-a concentration to be 30 µg/ml, and 30 minutes thereafter, a solution of isoproterenol hydrochloride in a very small amount of water was added thereto to make the isoproterenol hydrochloride concentration to be 10-^9 g/ml, and atrial rate was measured."}},
  "data": [
    {"molecule": "COc1c(C)cc2c(c1O)C(CO)NC(CO)C2", "note": "(stereo not drawn) [MY336-a]", "values": [
      {"measurement": "Solubility", "setting": "[1]; in acetone, hexane and ether", "result": "sparingly soluble"},
      {"measurement": "Solubility", "setting": "[1]; in acidic water", "result": "readily soluble"},
      {"measurement": "Solubility", "setting": "[1]; in water and methanol", "result": "soluble"},
      {"measurement": "agonistic activity on adrenergic receptor", "setting": "[2]", "result": "no agonistic activity"},
      {"measurement": "antagonistic activity on adrenergic receptor", "setting": "[2]", "result": "has an antagonistic activity"},
      {"measurement": "inhibition at 30 µg/mL", "setting": "[3]", "result": 84.9, "unit": "%"}
    ]}
  ]
}
